{
  "source": "ChEMBL document CHEMBL5291721",
  "about": "“A preclinical secondary pharmacology resource illuminates target-adverse drug reaction associations of marketed drugs” (Nat Commun, 2023); note: assay procedure not described here",
  "key": {"[1]": {"biological_target": "Neurotensin receptor type 1 (Homo sapiens, UniProt P30989)", "sequence (P30989 whole entry)": "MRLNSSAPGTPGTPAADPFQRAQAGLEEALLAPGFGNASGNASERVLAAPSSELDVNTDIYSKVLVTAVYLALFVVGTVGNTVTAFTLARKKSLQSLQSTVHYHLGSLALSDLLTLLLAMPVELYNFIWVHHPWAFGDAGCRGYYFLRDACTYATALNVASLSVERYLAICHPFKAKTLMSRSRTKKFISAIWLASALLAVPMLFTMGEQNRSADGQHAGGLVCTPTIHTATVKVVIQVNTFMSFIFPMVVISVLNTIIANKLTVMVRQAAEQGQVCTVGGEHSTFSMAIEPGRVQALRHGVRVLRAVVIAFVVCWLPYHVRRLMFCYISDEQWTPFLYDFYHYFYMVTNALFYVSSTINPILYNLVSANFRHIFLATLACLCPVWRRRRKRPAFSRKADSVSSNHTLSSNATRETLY"}, "[2]": {"biological_target": "T1, B1 bradykinin receptor (Homo sapiens, UniProt P46663)", "T1 sequence (P46663 whole entry)": "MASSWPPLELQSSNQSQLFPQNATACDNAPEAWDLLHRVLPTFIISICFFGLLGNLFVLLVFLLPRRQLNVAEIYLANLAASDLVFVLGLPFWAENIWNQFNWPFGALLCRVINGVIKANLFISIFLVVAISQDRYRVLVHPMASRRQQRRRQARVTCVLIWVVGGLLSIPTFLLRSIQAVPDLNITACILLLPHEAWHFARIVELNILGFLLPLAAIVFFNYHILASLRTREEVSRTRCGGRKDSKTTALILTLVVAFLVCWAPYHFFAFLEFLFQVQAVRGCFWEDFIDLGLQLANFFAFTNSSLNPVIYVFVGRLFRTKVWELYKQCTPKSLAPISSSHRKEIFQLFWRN"}, "[3]": {"biological_target": "T2, Endothelin receptor type B (Homo sapiens, UniProt P24530)", "T2 sequence (P24530 whole entry)": "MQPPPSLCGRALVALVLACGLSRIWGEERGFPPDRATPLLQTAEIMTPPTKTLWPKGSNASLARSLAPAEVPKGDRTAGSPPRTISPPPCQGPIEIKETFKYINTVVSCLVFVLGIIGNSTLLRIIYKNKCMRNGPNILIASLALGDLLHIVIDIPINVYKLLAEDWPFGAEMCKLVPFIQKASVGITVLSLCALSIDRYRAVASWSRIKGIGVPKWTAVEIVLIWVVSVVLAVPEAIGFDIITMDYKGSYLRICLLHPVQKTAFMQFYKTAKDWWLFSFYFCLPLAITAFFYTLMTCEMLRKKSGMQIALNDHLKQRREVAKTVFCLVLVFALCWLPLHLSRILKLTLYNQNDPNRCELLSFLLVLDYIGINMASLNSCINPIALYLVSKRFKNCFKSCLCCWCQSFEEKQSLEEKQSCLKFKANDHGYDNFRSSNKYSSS"}, "[4]": {"biological_target": "Voltage-dependent N-type calcium channel subunit alpha-1B (Rattus norvegicus, UniProt Q02294)", "sequence (Q02294 whole entry)": "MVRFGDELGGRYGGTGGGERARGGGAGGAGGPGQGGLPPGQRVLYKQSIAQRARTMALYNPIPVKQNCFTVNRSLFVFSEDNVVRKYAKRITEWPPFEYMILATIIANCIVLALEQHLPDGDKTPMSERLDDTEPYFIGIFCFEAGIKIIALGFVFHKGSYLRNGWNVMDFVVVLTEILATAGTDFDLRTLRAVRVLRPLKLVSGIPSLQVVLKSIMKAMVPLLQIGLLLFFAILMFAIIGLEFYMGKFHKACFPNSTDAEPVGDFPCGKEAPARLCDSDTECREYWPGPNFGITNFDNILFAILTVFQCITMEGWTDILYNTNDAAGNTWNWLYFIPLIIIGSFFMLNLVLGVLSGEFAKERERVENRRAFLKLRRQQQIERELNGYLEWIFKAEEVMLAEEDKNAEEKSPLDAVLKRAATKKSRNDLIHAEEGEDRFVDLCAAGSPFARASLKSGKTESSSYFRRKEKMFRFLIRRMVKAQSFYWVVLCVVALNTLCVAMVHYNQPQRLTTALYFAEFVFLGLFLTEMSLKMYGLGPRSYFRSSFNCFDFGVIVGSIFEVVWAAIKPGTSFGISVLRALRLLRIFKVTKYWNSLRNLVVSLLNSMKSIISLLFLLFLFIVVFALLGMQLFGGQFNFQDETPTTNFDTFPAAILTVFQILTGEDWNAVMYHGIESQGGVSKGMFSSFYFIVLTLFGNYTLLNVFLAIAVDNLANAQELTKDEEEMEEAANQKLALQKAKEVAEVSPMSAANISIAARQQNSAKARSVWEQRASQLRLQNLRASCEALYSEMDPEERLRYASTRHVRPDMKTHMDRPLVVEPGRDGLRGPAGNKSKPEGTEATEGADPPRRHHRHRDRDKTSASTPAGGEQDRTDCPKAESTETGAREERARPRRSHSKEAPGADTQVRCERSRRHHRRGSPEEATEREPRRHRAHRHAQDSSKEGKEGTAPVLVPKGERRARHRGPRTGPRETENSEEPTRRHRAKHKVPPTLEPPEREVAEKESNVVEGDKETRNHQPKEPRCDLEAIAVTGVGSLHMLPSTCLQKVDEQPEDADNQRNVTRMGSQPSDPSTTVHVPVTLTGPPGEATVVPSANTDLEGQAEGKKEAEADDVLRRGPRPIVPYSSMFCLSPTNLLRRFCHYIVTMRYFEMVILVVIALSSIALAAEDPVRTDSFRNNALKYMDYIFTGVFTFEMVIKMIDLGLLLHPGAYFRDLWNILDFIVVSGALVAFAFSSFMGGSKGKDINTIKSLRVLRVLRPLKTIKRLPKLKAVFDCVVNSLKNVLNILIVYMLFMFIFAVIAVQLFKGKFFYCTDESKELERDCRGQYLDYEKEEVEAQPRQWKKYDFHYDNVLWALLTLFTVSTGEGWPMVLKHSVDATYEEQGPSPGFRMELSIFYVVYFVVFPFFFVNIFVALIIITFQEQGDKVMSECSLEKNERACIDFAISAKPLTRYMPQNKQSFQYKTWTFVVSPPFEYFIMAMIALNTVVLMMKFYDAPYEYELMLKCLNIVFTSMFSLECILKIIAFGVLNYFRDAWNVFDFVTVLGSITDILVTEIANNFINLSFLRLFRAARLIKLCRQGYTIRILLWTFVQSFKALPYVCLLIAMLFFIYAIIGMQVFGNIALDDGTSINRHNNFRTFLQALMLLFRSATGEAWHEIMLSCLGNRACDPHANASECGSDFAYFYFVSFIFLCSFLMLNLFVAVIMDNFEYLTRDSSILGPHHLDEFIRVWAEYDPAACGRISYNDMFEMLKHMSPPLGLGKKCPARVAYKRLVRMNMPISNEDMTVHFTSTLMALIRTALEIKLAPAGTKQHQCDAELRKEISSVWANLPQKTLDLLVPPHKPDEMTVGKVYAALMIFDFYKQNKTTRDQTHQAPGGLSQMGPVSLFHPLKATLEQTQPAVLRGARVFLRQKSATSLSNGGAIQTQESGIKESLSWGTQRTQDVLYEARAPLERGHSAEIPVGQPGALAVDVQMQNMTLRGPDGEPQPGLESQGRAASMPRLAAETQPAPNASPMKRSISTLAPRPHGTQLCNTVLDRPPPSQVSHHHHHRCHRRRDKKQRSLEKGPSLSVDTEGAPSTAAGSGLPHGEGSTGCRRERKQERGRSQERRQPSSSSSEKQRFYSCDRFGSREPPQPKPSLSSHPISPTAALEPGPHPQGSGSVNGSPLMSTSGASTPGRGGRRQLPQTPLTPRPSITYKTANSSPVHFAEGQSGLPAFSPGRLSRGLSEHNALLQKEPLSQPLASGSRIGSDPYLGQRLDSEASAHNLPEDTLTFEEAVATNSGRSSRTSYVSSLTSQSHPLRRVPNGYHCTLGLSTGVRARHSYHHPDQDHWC", "type": "functional"}, "[5]": {"biological_target": "T3, Corticotropin-releasing factor receptor 2 (Homo sapiens, UniProt Q13324)", "T3 sequence (Q13324 whole entry)": "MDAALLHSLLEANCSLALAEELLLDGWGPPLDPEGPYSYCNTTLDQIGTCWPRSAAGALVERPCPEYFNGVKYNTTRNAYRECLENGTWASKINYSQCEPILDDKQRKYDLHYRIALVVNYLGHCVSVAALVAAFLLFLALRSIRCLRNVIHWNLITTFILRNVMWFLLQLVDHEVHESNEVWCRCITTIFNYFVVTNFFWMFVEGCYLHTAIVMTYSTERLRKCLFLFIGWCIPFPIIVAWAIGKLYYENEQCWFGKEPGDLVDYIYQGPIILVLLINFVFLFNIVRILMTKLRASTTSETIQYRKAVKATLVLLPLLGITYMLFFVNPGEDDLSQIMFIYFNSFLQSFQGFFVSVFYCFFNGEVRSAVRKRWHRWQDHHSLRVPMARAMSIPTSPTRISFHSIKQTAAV"}, "[6]": {"biological_target": "Glucagon receptor (Homo sapiens, UniProt P47871)", "sequence (P47871 whole entry)": "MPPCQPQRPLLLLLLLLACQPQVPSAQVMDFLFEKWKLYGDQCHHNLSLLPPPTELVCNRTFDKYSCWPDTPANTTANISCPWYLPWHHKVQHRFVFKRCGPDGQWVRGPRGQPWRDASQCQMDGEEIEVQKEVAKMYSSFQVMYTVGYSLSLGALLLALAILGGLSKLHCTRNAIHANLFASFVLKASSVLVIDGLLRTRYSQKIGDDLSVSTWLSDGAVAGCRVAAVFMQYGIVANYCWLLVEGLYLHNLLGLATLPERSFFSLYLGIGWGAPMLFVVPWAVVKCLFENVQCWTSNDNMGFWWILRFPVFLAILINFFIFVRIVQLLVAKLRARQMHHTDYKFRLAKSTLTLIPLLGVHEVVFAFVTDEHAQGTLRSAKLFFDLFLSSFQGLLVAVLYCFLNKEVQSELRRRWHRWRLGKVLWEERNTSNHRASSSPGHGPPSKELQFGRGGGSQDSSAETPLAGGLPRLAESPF"}, "[7]": {"biological_target": "T4, Adenosine receptor A3 (Homo sapiens, UniProt P0DMS8)", "T4 sequence (P0DMS8 whole entry)": "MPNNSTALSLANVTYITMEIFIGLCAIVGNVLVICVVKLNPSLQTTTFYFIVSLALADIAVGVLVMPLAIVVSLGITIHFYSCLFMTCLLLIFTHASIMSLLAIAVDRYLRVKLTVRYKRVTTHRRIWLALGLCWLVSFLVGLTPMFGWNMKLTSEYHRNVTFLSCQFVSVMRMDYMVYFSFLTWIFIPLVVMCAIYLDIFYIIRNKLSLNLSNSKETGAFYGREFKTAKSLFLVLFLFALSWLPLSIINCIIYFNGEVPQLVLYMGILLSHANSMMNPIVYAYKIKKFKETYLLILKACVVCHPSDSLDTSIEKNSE"}, "[8]": {"biological_target": "T5, Amine oxidase [flavin-containing] A (Homo sapiens, UniProt P21397)", "T5 sequence (P21397 whole entry)": "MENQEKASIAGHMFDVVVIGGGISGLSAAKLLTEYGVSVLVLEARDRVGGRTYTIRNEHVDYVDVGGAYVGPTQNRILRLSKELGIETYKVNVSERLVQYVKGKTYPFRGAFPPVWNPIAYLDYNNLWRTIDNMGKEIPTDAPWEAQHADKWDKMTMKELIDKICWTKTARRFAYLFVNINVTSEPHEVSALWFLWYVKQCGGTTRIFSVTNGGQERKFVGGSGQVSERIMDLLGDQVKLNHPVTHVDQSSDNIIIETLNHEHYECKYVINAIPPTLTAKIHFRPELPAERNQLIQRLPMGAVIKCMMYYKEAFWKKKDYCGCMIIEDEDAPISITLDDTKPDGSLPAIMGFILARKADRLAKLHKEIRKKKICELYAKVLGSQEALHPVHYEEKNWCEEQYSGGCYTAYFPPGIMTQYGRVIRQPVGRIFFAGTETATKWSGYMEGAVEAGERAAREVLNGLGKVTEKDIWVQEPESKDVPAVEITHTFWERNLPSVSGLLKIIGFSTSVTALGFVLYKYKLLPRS", "type": "functional"}, "[9]": {"biological_target": "5-hydroxytryptamine receptor 2B (Homo sapiens, UniProt P41595)", "sequence (P41595 whole entry)": "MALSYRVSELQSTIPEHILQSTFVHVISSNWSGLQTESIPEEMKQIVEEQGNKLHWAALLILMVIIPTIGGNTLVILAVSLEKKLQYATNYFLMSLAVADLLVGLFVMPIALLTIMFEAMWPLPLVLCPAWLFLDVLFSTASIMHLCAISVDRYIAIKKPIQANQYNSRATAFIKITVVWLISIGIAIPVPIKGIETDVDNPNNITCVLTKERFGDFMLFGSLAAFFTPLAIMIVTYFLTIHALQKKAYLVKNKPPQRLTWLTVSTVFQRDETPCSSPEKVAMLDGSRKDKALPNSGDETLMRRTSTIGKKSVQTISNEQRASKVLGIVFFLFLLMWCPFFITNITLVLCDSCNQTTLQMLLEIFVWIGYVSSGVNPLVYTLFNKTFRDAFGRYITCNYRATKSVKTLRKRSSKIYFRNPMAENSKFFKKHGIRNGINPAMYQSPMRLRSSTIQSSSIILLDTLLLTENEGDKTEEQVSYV", "type": "functional, cell-based"}, "[10]": {"biological_target": "Prostaglandin G/H synthase 1 (Homo sapiens, UniProt P23219)", "sequence (P23219 whole entry)": "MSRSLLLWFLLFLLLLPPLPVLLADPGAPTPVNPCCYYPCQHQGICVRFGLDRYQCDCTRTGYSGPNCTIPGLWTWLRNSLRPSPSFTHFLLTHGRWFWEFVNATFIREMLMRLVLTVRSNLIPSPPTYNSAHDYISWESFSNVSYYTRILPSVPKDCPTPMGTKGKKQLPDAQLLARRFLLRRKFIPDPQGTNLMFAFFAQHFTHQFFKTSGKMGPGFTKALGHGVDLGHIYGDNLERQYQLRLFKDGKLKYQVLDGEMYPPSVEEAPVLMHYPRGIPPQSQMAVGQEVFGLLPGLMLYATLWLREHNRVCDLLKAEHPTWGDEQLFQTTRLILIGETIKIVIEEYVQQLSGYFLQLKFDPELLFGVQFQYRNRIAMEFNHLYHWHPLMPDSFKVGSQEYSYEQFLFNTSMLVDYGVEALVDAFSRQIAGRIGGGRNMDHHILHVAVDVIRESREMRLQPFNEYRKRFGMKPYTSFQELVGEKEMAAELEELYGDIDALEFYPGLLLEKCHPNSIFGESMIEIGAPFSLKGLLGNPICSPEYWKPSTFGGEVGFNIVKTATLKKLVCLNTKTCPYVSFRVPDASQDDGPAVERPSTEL", "type": "functional"}, "[11]": {"biological_target": "Gamma-aminobutyric acid receptor subunit alpha-1/alpha-2/beta-2/gamma-2 (Homo sapiens, UniProt P14867+P18507+P47869+P47870)", "type": "functional, cell-based"}, "[12]": {"biological_target": "Histamine H1 receptor (Homo sapiens, UniProt P35367)", "sequence (P35367 whole entry)": "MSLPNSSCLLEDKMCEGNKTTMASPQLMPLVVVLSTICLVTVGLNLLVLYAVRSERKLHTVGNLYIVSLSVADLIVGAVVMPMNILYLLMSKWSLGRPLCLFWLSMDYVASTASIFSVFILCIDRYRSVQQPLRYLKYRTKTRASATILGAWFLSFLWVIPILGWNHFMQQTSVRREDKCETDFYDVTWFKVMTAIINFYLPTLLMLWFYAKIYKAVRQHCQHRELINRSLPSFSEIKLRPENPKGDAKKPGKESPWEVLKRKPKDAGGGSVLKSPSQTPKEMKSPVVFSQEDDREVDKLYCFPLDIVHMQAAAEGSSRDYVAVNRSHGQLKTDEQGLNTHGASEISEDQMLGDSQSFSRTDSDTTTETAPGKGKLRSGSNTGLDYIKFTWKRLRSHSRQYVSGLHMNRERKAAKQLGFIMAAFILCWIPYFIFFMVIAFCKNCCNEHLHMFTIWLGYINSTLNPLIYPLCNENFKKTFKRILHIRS", "type": "functional, cell-based"}},
  "data": [
    {"smiles": "Cn1c(=O)cc(N2CCC[C@@H](N)C2)n(Cc2ccccc2C#N)c1=O", "note": "[ALOGLIPTIN]", "values": [
      {"measurement": "AC50", "setting": "[1]", "result": "> 30", "unit": "µM"},
      {"measurement": "AC50", "setting": "[2]", "result": "> 30", "unit": "µM"},
      {"measurement": "AC50", "setting": "[3]", "result": "> 30", "unit": "µM"},
      {"measurement": "AC50", "setting": "[4]", "result": "> 10", "unit": "µM"},
      {"measurement": "AC50", "setting": "[5]", "result": "> 30", "unit": "µM"},
      {"measurement": "AC50", "setting": "[6]", "result": "> 30", "unit": "µM"}
    ]},
    {"smiles": "Nc1c2ccccc2nc2ccccc12", "note": "[AMINACRINE]", "values": [
      {"measurement": "AC50", "setting": "[7]", "result": 9.62, "unit": "µM"},
      {"measurement": "AC50", "setting": "[8]", "result": "> 30", "unit": "µM"},
      {"measurement": "AC50", "setting": "[9]", "result": "> 30", "unit": "µM"},
      {"measurement": "AC50", "setting": "[10]", "result": "> 30", "unit": "µM"}
    ]},
    {"smiles": "CCN1CCCC1CNC(=O)c1cc(S(=O)(=O)CC)c(N)cc1OC", "note": "(centres undefined) [AMISULPRIDE]", "values": [
      {"measurement": "AC50", "setting": "[11]", "result": "> 30", "unit": "µM"},
      {"measurement": "AC50", "setting": "[12]", "result": "> 30", "unit": "µM"}
    ]},
    {"smiles": "Oc1ccc2c(c1)[C@@]13CCCC[C@@]1(O)[C@@H](C2)N(CC1CCC1)CC3", "note": "[BUTORPHANOL]", "values": [
      {"measurement": "AC50", "setting": "[11]", "result": "> 30", "unit": "µM"}
    ]},
    {"smiles": "CC(=O)OCC(=O)[C@@]1(O)[C@H](C)C[C@H]2[C@@H]3CCC4=CC(=O)C=C[C@]4(C)[C@@]3(F)[C@@H](O)C[C@@]21C", "note": "[DEXAMETHASONE ACETATE]", "values": [
      {"measurement": "AC50", "setting": "[1]", "result": "> 30", "unit": "µM"},
      {"measurement": "AC50", "setting": "[2]", "result": "> 30", "unit": "µM"},
      {"measurement": "AC50", "setting": "[3]", "result": "> 30", "unit": "µM"},
      {"measurement": "AC50", "setting": "[4]", "result": "> 10", "unit": "µM"},
      {"measurement": "AC50", "setting": "[5]", "result": "> 30", "unit": "µM"},
      {"measurement": "AC50", "setting": "[6]", "result": "> 30", "unit": "µM"}
    ]},
    {"smiles": "O=C(O)CCCCC1CCSS1", "note": "(stereo not drawn) [LIPOIC ACID, ALPHA]", "values": [
      {"measurement": "AC50", "setting": "[7]", "result": "> 30", "unit": "µM"},
      {"measurement": "AC50", "setting": "[8]", "result": "> 30", "unit": "µM"},
      {"measurement": "AC50", "setting": "[9]", "result": "> 30", "unit": "µM"},
      {"measurement": "AC50", "setting": "[10]", "result": "> 30", "unit": "µM"}
    ]},
    {"smiles": "OCc1cc(C(O)CNCCCCCCOCCCCc2ccccc2)ccc1O", "note": "(centres undefined) [SALMETEROL]", "values": [
      {"measurement": "AC50", "setting": "[12]", "result": "> 30", "unit": "µM"}
    ]}
  ]
}
